Results published in the supplement of paper PMC5844555.

What was measured:
Assay in all cases: 3' UTR reporter interaction score (median-centred robust z-score of log2 firefly/Renilla activity); higher = less repression of the 3' UTR reporter
Conditions in all cases: HEK293T; 48 h
BRCA2 = system: BRCA2
Outline: (§1)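 HEK293T cells (10,000/well, 96-well plates) were co-transfected using DharmaFECT Duo with 100 ng firefly luc2P reporter carrying the gene's 3' UTR, 20 ng Renilla pRL-TK control and 2.5 pmol miRNA mimic. Dual-luciferase activities were read 48 h post-transfection. The interaction score is the log-transformed firefly/Renilla ratio as a per-plate robust z-score (median, median absolute deviation), median-centred per miRNA and averaged over at least two independent screens; more negative indicates interaction.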

NOTCH1 = system: NOTCH1
Outline: as §1

MYB = system: MYB
Outline: as §1

MYCN = system: MYCN
Outline: as §1

PHOX2B = system: PHOX2B
Outline: as §1

FBXW7 = system: FBXW7
Outline: as §1

EZH2 = system: EZH2
Outline: as §1

MYC = system: MYC
Outline: as §1

ZEB2 = system: ZEB2
Outline: as §1

HRAS = system: HRAS
Outline: as §1

PHF6 = system: PHF6
Outline: as §1

RB1 = system: RB1
Outline: as §1

MYT1L = system: MYT1L
Outline: as §1

TP53 = system: TP53
Outline: as §1

Row | Sequence | 3' UTR reporter interaction score (BRCA2) | 3' UTR reporter interaction score (NOTCH1) | 3' UTR reporter interaction score (MYB) | 3' UTR reporter interaction score (MYCN) | 3' UTR reporter interaction score (PHOX2B) | 3' UTR reporter interaction score (FBXW7) | 3' UTR reporter interaction score (EZH2) | 3' UTR reporter interaction score (MYC) | 3' UTR reporter interaction score (ZEB2) | 3' UTR reporter interaction score (HRAS) | 3' UTR reporter interaction score (PHF6) | 3' UTR reporter interaction score (RB1) | 3' UTR reporter interaction score (MYT1L) | 3' UTR reporter interaction score (TP53)
1 | UCCCUGAGACCCUAACUUGUGA | 1.7 | -0.154 | -0.19 | 0.264 | -1.65 | -0.252 | 0.82 | 1.24 | 1.05 | 1.12 | 0.386 | -0.398 | 0.796 | -1.15
2 | UCCCUGAGACCCUUUAACCUGUG | 0.772 | -0.719 | -0.228 | -0.334 | -2.78 | -0.449 | 1.1 | 0.131 | 0.152 | 1.12 | 1.62 | 0.0838 | 0.364 | -3.91
3 | UCCCUGUCCUCCAGGAGCUCA | -0.604 | -0.622 | 0.312 | 0.194 | -1.29 | 0.105 | 0.643 | 0.568 | -0.151 | 0.998 | -1.54 | -0.85 | -0.918 | 0.159
4 | UCCGAGCCUGGGUCUCCCUCU | 0.0314 | 0.141 | -0.402 | -0.731 | 1.22 | 0.832 | 0.213 | -0.43 | -0.318 | -0.0807 | -0.194 | 0.559 | 1.66 | 0.107
5 | UCCGUCUCAGUUACUUUAUAGCC | 1.46 | -0.0124 | -1.75 | -0.29 | -0.906 | -1.56 | 0.571 | 0.0204 | -2.24 | -0.357 | 2.5 | 0.307 | -0.738 | 1.13
6 | UCCUGUACUGAGCUGCCCCGAG | -2.39 | -0.221 | -1.33 | 0.364 | 1.42 | 0.155 | 0.519 | -0.142 | -2.27 | 0.706 | -0.91 | -2.81 | -1.49 | -0.164
7 | UCCUUCAUUCCACCGGAGUCUG | -0.488 | -0.263 | 1.93 | 0.466 | -0.547 | -0.512 | 0.832 | 1.16 | -2.53 | -1.28 | 0.83 | 0.813 | 1.34 | -0.464
8 | UCGGAUCCGUCUGAGCUUGGCU | 1.24 | 0.076 | -4.97 | 1.3 | -0.526 | 0.968 | 1.84 | -0.287 | 0.123 | 1.22 | -0.555 | -0.185 | -1.06 | -0.412
